Measurements as given in US9211310B2, “Use of a Chinese medicine composition in preparing medicaments for treating secondary prevention of myocardial infarction” (TASLY PHARMACEUTICAL GROUP CO., LTD, priority 2010, dated 2015).

System: patients after acute myocardial infarction
Experiment: Life quality, Seattle Angina Questionnaire (SAQ), same clinical trial
Assay type: in vivo, human
Conditions: PP
Source text: 3508 patients who were in accordance with the diagnostic standards of AMI for 28 days to 2 years and differentiated as Qi deficiency and blood stagnation syndrome by TCM were studied. 0.5 g Chinese medicine composition prepared by the method of EXAMPLE 1 (Coded as QSYQ) was administrated half an hour after meal, 3 times per day.
There were 19 questions in the Seattle angina questionnaire (SAQ), including 5 parts: physical limitation (PL), anginal stability (AS), anginal frequency (AF), treatment satisfaction (TS) and disease perception (DP). After being given necessary explanation by doctors, the questions were answered independently by patients.
They included the overall survival time, angina pectoris score, TCM symptom score and life quality score, where angina pectoris score, TCM symptom score and life quality score were evaluated at randomization, in 1st, 3rd, 6th, 9th, 12th month after treatment and 18th month after follow-up.
All evaluation results of SAQ were described during the period of observation, and Wilcoxon rank sum test was used for inter-group comparison.
The evaluation results in the SAQ were depicted in different observations, and inter-group comparison was tested by Wilcoxon Rank-sum test.

## CC(=O)Oc1ccccc1C(=O)O [Control group, aspirine]
12 months after treatment
  9th question: Severe, patients (%): (0.21%)
  9th question: Uneffective, patients (%): (24.25%)
  10th question: Dissatisfied, patients (%): (18.68%)
  10th question: Highly satisfied, patients (%): (8.26%)
  10th question: Mostly dissatisfied, patients (%): (18.61%)
  10th question: Mostly satisfied, patients (%): (31.84%)
  10th question: Partly dissatisfied, patients (%): (22.60%)
  11th question: Continuously worried, patients (%): (1.96%)
  11th question: No worried, patients (%): (7.42%)
  11th question: Occasionally worried, patients (%): (40.59%)
  11th question: Often worried, patients (%): (7.98%)
  11th question: Seldom worried, patients (%): (42.06%)
  SAQ 4th question, 1-2 times per week: % of patients: (10.29%)
  SAQ 4th question, 1-2 times per week: number of patients: 147
  SAQ 4th question, 1-3 times per week: % of patients: (3.36%)
  SAQ 4th question, 1-3 times per week: number of patients: 48
  SAQ 4th question, <1 time per week: % of patients: (16.38%)
  SAQ 4th question, <1 time per week: number of patients: 234
  SAQ 4th question, Not used: % of patients: (67.74%)
  SAQ 4th question, Not used: number of patients: 968
  SAQ 4th question, ≧3 times per week: % of patients: (2.24%)
  SAQ 4th question, ≧3 times per week: number of patients: 32
  SAQ 4th question, ≧4 times per day: % of patients: (0.00%)
  SAQ 4th question, ≧4 times per day: number of patients: 0
  SAQ 5th question, 1-2 times per week: % of patients: (34.01%)
  SAQ 5th question, 1-2 times per week: number of patients: 486
  SAQ 5th question, 1-3 times per day: % of patients: (4.13%)
  SAQ 5th question, 1-3 times per day: number of patients: 59
  SAQ 5th question, <1 time per week: % of patients: (30.58%)
  SAQ 5th question, <1 time per week: number of patients: 437
  SAQ 5th question, No onset: % of patients: (5.67%)
  SAQ 5th question, No onset: number of patients: 81
  SAQ 5th question, ≧3 times per week: % of patients: (25.33%)
  SAQ 5th question, ≧3 times per week: number of patients: 362
  SAQ 5th question, ≧4 times per day: % of patients: (0.28%)
  SAQ 5th question, ≧4 times per day: number of patients: 4
  SAQ 6th question, Dissatisfied: % of patients: (0.07%)
  SAQ 6th question, Dissatisfied: number of patients: 1
  SAQ 6th question, Highly satisfied: % of patients: (27.78%)
  SAQ 6th question, Highly satisfied: number of patients: 397
  SAQ 6th question, Mostly dissatisfied: % of patients: (0.84%)
  SAQ 6th question, Mostly dissatisfied: number of patients: 12
  SAQ 6th question, Mostly satisfied: % of patients: (61.72%)
  SAQ 6th question, Mostly satisfied: number of patients: 882
  SAQ 6th question, Partly satisfied: % of patients: (9.59%)
  SAQ 6th question, Partly satisfied: number of patients: 137
  SAQ 7th question, Dissatisfied: % of patients: (0.07%)
  SAQ 7th question, Dissatisfied: number of patients: 1
  SAQ 7th question, Highly satisfied: % of patients: (31.25%)
  SAQ 7th question, Highly satisfied: number of patients: 446
  SAQ 7th question, Mostly dissatisfied: % of patients: (0.28%)
  SAQ 7th question, Mostly dissatisfied: number of patients: 4
  SAQ 7th question, Mostly satisfied: % of patients: (60.34%)
  SAQ 7th question, Mostly satisfied: number of patients: 861
  SAQ 7th question, Partly satisfied: % of patients: (8.06%)
  SAQ 7th question, Partly satisfied: number of patients: 115
  SAQ Question 1-1 Mildly limited, number of patients: 7
  SAQ Question 1-1 Mildly limited, percent of patients: (0.49%)
  SAQ Question 1-1 Moderately limited, number of patients: 1
  SAQ Question 1-1 Moderately limited, percent of patients: (0.07%)
  SAQ Question 1-1 Not limited, number of patients: 1371
  SAQ Question 1-1 Not limited, percent of patients: (96.28%)
  SAQ Question 1-1 Other reasons, number of patients: 4
  SAQ Question 1-1 Other reasons, percent of patients: (0.28%)
  SAQ Question 1-1 Severely limited, number of patients: 0
  SAQ Question 1-1 Severely limited, percent of patients: (0.00%)
  SAQ Question 1-1 Slightly limited, number of patients: 41
  SAQ Question 1-1 Slightly limited, percent of patients: (2.88%)
  SAQ Question 1-2 Mildly limited, number of patients: 8
  SAQ Question 1-2 Mildly limited, percent of patients: (0.56%)
  SAQ Question 1-2 Moderately limited, number of patients: 1
  SAQ Question 1-2 Moderately limited, percent of patients: (0.07%)
  SAQ Question 1-2 Not limited, number of patients: 1365
  SAQ Question 1-2 Not limited, percent of patients: (95.79%)
  SAQ Question 1-2 Other reasons, number of patients: 6
  SAQ Question 1-2 Other reasons, percent of patients: (0.42%)
  SAQ Question 1-2 Severely limited, number of patients: 0
  SAQ Question 1-2 Severely limited, percent of patients: (0.00%)
  SAQ Question 1-2 Slightly limited, number of patients: 45
  SAQ Question 1-2 Slightly limited, percent of patients: (3.16%)
  SAQ Question 1-6: Mildly limited, patients (%): (13.45%)
  SAQ Question 1-6: Moderately limited, patients (%): (9.58%)
  SAQ Question 1-6: Not limited, patients (%): (42.39%)
  SAQ Question 1-6: Other reasons, patients (%): (0.92%)
  SAQ Question 1-6: Severely limited, patients (%): (1.76%)
  SAQ Question 1-6: Slightly limited, patients (%): (31.90%)
  SAQ Question 1-7: Mildly limited, patients (%): (20.24%)
  SAQ Question 1-7: Moderately limited, patients (%): (9.84%)
  SAQ Question 1-7: Not limited, patients (%): (21.81%)
  SAQ Question 1-7: Other limited, patients (%): (3.56%)
  SAQ Question 1-7: Severely limited, patients (%): (12.05%)
  SAQ Question 1-7: Slightly limited, patients (%): (32.50%)
  SAQ Question 1-8: Mildly limited, patients (%): (24.98%)
  SAQ Question 1-8: Moderately limited, patients (%): (12.17%)
  SAQ Question 1-8: Not limited, patients (%): (14.53%)
  SAQ Question 1-8: Other reasons, patients (%): (4.22%)
  SAQ Question 1-8: Severely limited, patients (%): (15.68%)
  SAQ Question 1-8: Slightly limited, patients (%): (28.42%)
Baseline
  8th question: Dissatisfied, patients (%): (0.87%)
  8th question: Highly satisfied, patients (%): (14.83%)
  8th question: Mostly dissatisfied, patients (%): (6.61%)
  8th question: Mostly satisfied, patients (%): (45.16%)
  8th question: Partly satisfied, patients (%): (32.53%)
  9th question: Few, patients (%): (20.91%)
  9th question: Mild, patients (%): (37.01%)
  9th question: Moderate, patients (%): (26.99%)
  9th question: Severe, patients (%): (3.34%)
  9th question: Uneffective, patients (%): (11.76%)
  10th question: Dissatisfied, patients (%): (25.25%)
  10th question: Highly satisfied, patients (%): (2.07%)
  10th question: Mostly dissatisfied, patients (%): (24.11%)
  10th question: Mostly satisfied, patients (%): (16.30%)
  10th question: Partly satisfied, patients (%): (32.26%)
  11th question: Continuously worried, patients (%): (9.21%)
  11th question: No worried, patients (%): (3.94%)
  11th question: Occasionally worried, patients (%): (41.32%)
  11th question: Often worried, patients (%): (25.10%)
  11th question: Seldom worried, patients (%): (20.43%)
  SAQ 4th question, 1-2 times per week: % of patients: (20.17%)
  SAQ 4th question, 1-2 times per week: number of patients: 301
  SAQ 4th question, 1-3 times per day: % of patients: (8.78%)
  SAQ 4th question, 1-3 times per day: number of patients: 131
  SAQ 4th question, <1 time per week: % of patients: (9.52%)
  SAQ 4th question, <1 time per week: number of patients: 142
  SAQ 4th question, Not used: % of patients: (43.16%)
  SAQ 4th question, Not used: number of patients: 644
  SAQ 4th question, ≧3 times per week: % of patients: (17.43%)
  SAQ 4th question, ≧3 times per week: number of patients: 260
  SAQ 4th question, ≧4 times per day: % of patients: (0.94%)
  SAQ 4th question, ≧4 times per day: number of patients: 14
  SAQ 5th question, Few: % of patients: (19.21%)
  SAQ 5th question, Few: number of patients: 287
  SAQ 5th question, Mild: % of patients: (31.26%)
  SAQ 5th question, Mild: number of patients: 467
  SAQ 5th question, Moderate: % of patients: (21.29%)
  SAQ 5th question, Moderate: number of patients: 318
  SAQ 5th question, None: % of patients: (22.02%)
  SAQ 5th question, None: number of patients: 329
  SAQ 5th question, Not medicated by doctors: % of patients: (3.01%)
  SAQ 5th question, Not medicated by doctors: number of patients: 45
  SAQ 5th question, Severe: % of patients: (3.21%)
  SAQ 5th question, Severe: number of patients: 48
  SAQ 6th question, Dissatisfied: % of patients: (1.14%)
  SAQ 6th question, Dissatisfied: number of patients: 17
  SAQ 6th question, Highly satisfied: % of patients: (14.90%)
  SAQ 6th question, Highly satisfied: number of patients: 223
  SAQ 6th question, Mostly dissatisfied: % of patients: (6.48%)
  SAQ 6th question, Mostly dissatisfied: number of patients: 97
  SAQ 6th question, Mostly satisfied: % of patients: (44.29%)
  SAQ 6th question, Mostly satisfied: number of patients: 663
  SAQ 6th question, Partly satisfied: % of patients: (33.20%)
  SAQ 6th question, Partly satisfied: number of patients: 497
  SAQ 7th question, Dissatisfied: % of patients: (0.33%)
  SAQ 7th question, Dissatisfied: number of patients: 5
